Square brackets hold non-standard residues; d marks the D form. Peptide text beside a SMILES is read from it. Arg(Me) = CNC(=N)NCCC[C@H](N)C(=O)O; d3Pal = N[C@H](Cc1cccnc1)C(=O)O; azaGly = NNC(=O)O
Experiments:
Type in all cases: functional, Homo sapiens
Design in all cases: dose or concentration left out as unconfirmed
Colon cancer organoid [1] = assay: Optimized Dual-Glo assay to identify co-culture induced drug vulnerabilities using donated chemical probes and chemogenomics kinase set in O14 CRC organoid and F14 CAF mono and co-culture. […] Cell viability is reported both mono and co-culture models.
Colon cancer organoid [2] = assay: Optimized Dual-Glo assay to identify co-culture induced drug vulnerabilities using donated chemical probes and chemogenomics kinase set in O06 CRC organoid and F06 CAF mono and co-culture. […] Cell viability is reported both mono and co-culture models.
Colon cancer organoid [3] = assay: Optimized Dual-Glo assay to identify co-culture induced drug vulnerabilities using donated chemical probes and chemogenomics kinase set in O20 CRC organoid and F20 CAF mono and co-culture. […] Cell viability is reported both mono and co-culture models.
[4] = Culture type Co-Culture, Transduced with Lucferase2-P2A-EGFP lentivirus
[5] = Culture type Co-Culture, Transduced with Renilla-dsRed lentivirus
[6] = Culture type Mono-Culture, Transduced with Lucferase2-P2A-EGFP lentivirus
[7] = Culture type Mono-Culture, Transduced with Renilla-dsRed lentivirus

N#CC1(c2ccccn2)CCN(Cc2cc(C(=O)N3CCCC3)c(=O)n3ccccc23)CC1 [MSD-M1PAM-NC]
Cell Viability (Colon cancer organoid [1]; [4]): 77.5991%
Cell Viability (Colon cancer organoid [1]; [5]): 103.607%
Cell Viability (Colon cancer organoid [1]; [6]): 89.6138%
Cell Viability (Colon cancer organoid [1]; [7]): 86.9553%
Cell Viability (Colon cancer organoid [2]; [4]): 85.4848%
Cell Viability (Colon cancer organoid [2]; [5]): 72.6928%
Cell Viability (Colon cancer organoid [2]; [6]): 94.7679%
Cell Viability (Colon cancer organoid [2]; [7]): 111.31%
Cell Viability (Colon cancer organoid [3]; [4]): 102.191%
Cell Viability (Colon cancer organoid [3]; [5]): 109.338%
Cell Viability (Colon cancer organoid [3]; [6]): 89.1265%
Cell Viability (Colon cancer organoid [3]; [7]): 100.403%

CCOc1cc2ncc(C#N)c(Nc3ccc(OCc4cccc(F)c4)c(Cl)c3)c2cc1NC(=O)/C=C/CN(C)C [HKI-357]
Cell Viability (Colon cancer organoid [1]; [4]): 25.3344%
Cell Viability (Colon cancer organoid [1]; [5]): 46.9424%
Cell Viability (Colon cancer organoid [1]; [6]): 1.402%
Cell Viability (Colon cancer organoid [1]; [7]): 33.5455%
Cell Viability (Colon cancer organoid [2]; [4]): 16.8896%
Cell Viability (Colon cancer organoid [2]; [5]): 39.6819%
Cell Viability (Colon cancer organoid [2]; [6]): 6.232%
Cell Viability (Colon cancer organoid [2]; [7]): 45.0211%
Cell Viability (Colon cancer organoid [3]; [4]): 50.2885%
Cell Viability (Colon cancer organoid [3]; [5]): 47.1207%
Cell Viability (Colon cancer organoid [3]; [6]): 7.299%
Cell Viability (Colon cancer organoid [3]; [7]): 36.419%

Cc1c(NC(=O)c2cc(C(N)=O)nc3cc(F)ccc23)c(C(F)(F)F)nn1Cc1ccc(C#N)cc1 [BAY-876]
Cell Viability (Colon cancer organoid [1]; [4]): 22.1239%
Cell Viability (Colon cancer organoid [1]; [5]): 120.557%
Cell Viability (Colon cancer organoid [1]; [6]): 31.4127%
Cell Viability (Colon cancer organoid [1]; [7]): 63.4994%
Cell Viability (Colon cancer organoid [2]; [4]): 9.2808%
Cell Viability (Colon cancer organoid [2]; [5]): 424.118%
Cell Viability (Colon cancer organoid [2]; [6]): 4.84%
Cell Viability (Colon cancer organoid [2]; [7]): 74.218%
Cell Viability (Colon cancer organoid [3]; [4]): 13.842%
Cell Viability (Colon cancer organoid [3]; [5]): 190.785%
Cell Viability (Colon cancer organoid [3]; [6]): 15.2674%
Cell Viability (Colon cancer organoid [3]; [7]): 77.5911%

CNc1nc(Nc2cnn([C@H]3CCN(C4COC4)C[C@@H]3F)c2Cl)ncc1C(F)(F)F
Cell Viability (Colon cancer organoid [1]; [4]): 116.318%
Cell Viability (Colon cancer organoid [1]; [5]): 104.728%
Cell Viability (Colon cancer organoid [1]; [6]): 169.727%
Cell Viability (Colon cancer organoid [1]; [7]): 102.216%
Cell Viability (Colon cancer organoid [2]; [4]): 94.4056%
Cell Viability (Colon cancer organoid [2]; [5]): 87.0484%
Cell Viability (Colon cancer organoid [2]; [6]): 128.459%
Cell Viability (Colon cancer organoid [2]; [7]): 108.44%
Cell Viability (Colon cancer organoid [3]; [4]): 199.298%
Cell Viability (Colon cancer organoid [3]; [5]): 86.9942%
Cell Viability (Colon cancer organoid [3]; [6]): 108.189%
Cell Viability (Colon cancer organoid [3]; [7]): 89.737%

CCCCN(CCCC)C(=O)CN1C[C@@H](c2cc(OC)c3c(c2)OCO3)[C@H](C(=O)O)[C@H]1CC(C)(C)CCC [A-545]
Cell Viability (Colon cancer organoid [1]; [4]): 105.072%
Cell Viability (Colon cancer organoid [1]; [5]): 96.9928%
Cell Viability (Colon cancer organoid [1]; [6]): 119.694%
Cell Viability (Colon cancer organoid [1]; [7]): 109.859%
Cell Viability (Colon cancer organoid [2]; [4]): 124.297%
Cell Viability (Colon cancer organoid [2]; [5]): 133.906%
Cell Viability (Colon cancer organoid [2]; [6]): 113.751%
Cell Viability (Colon cancer organoid [2]; [7]): 92.0951%
Cell Viability (Colon cancer organoid [3]; [4]): 123.099%
Cell Viability (Colon cancer organoid [3]; [5]): 97.2502%
Cell Viability (Colon cancer organoid [3]; [6]): 106.602%
Cell Viability (Colon cancer organoid [3]; [7]): 112.439%

CN(C)C(=O)Cn1cc(-c2ccc(-c3cncc4ccccc34)cc2)cn1
Cell Viability (Colon cancer organoid [1]; [4]): 86.7541%
Cell Viability (Colon cancer organoid [1]; [5]): 14.5396%
Cell Viability (Colon cancer organoid [1]; [6]): 75.1396%
Cell Viability (Colon cancer organoid [1]; [7]): 23.2323%
Cell Viability (Colon cancer organoid [2]; [4]): 83.3121%
Cell Viability (Colon cancer organoid [2]; [5]): 47.4852%
Cell Viability (Colon cancer organoid [2]; [6]): 74.4895%
Cell Viability (Colon cancer organoid [2]; [7]): 24.5354%
Cell Viability (Colon cancer organoid [3]; [4]): 97.1634%
Cell Viability (Colon cancer organoid [3]; [5]): 25.8647%
Cell Viability (Colon cancer organoid [3]; [6]): 131.343%
Cell Viability (Colon cancer organoid [3]; [7]): 32.5119%

Cn1cncc1[C@@](O)(COc1ccc(C#N)cc1-c1ccc(OC(F)(F)F)cc1)c1ccc(C#N)cc1 [A-108]
Cell Viability (Colon cancer organoid [1]; [4]): 57.9117%
Cell Viability (Colon cancer organoid [1]; [5]): 92.8032%
Cell Viability (Colon cancer organoid [1]; [6]): 90.1674%
Cell Viability (Colon cancer organoid [1]; [7]): 97.2035%
Cell Viability (Colon cancer organoid [2]; [4]): 113.578%
Cell Viability (Colon cancer organoid [2]; [5]): 151.877%
Cell Viability (Colon cancer organoid [2]; [6]): 88.7228%
Cell Viability (Colon cancer organoid [2]; [7]): 108.002%
Cell Viability (Colon cancer organoid [3]; [4]): 89.1467%
Cell Viability (Colon cancer organoid [3]; [5]): 110.638%
Cell Viability (Colon cancer organoid [3]; [6]): 65.4211%
Cell Viability (Colon cancer organoid [3]; [7]): 112.38%

Cl.Cl.Cl.c1ccc(N2CCN(Cc3nc4ccccc4[nH]3)CC2)nc1
Cell Viability (Colon cancer organoid [1]; [4]): 78.8417%
Cell Viability (Colon cancer organoid [1]; [5]): 120.535%
Cell Viability (Colon cancer organoid [1]; [6]): 87.6489%
Cell Viability (Colon cancer organoid [1]; [7]): 99.3304%
Cell Viability (Colon cancer organoid [2]; [4]): 145.739%
Cell Viability (Colon cancer organoid [2]; [5]): 162.508%
Cell Viability (Colon cancer organoid [2]; [6]): 117.947%
Cell Viability (Colon cancer organoid [2]; [7]): 106.828%
Cell Viability (Colon cancer organoid [3]; [4]): 41.4322%
Cell Viability (Colon cancer organoid [3]; [5]): 124.541%
Cell Viability (Colon cancer organoid [3]; [6]): 78.9868%
Cell Viability (Colon cancer organoid [3]; [7]): 88.4978%

CNC(=N)NCCC[C@H](NC(=O)[C@H](CC(C)C)NC(=O)NNC(=O)[C@H](Cc1ccccc1)NC(=O)[C@H](CO)NC(=O)[C@H](CC(N)=O)NC(=O)[C@@H](Cc1cccnc1)NC(=O)[C@H](N)Cc1ccc(O)cc1)C(=O)NCC(N)=O [KISS1-543] (H-[dY][d3Pal]NSF[azaGly]L[Arg(Me)]G-NH2)
Cell Viability (Colon cancer organoid [1]; [4]): 118.116%
Cell Viability (Colon cancer organoid [1]; [5]): 72.7172%
Cell Viability (Colon cancer organoid [1]; [6]): 93.1075%
Cell Viability (Colon cancer organoid [1]; [7]): 78.975%
Cell Viability (Colon cancer organoid [2]; [4]): 103.647%
Cell Viability (Colon cancer organoid [2]; [5]): 101.302%
Cell Viability (Colon cancer organoid [2]; [6]): 85.2773%
Cell Viability (Colon cancer organoid [2]; [7]): 99.9886%
Cell Viability (Colon cancer organoid [3]; [4]): 101.104%
Cell Viability (Colon cancer organoid [3]; [5]): 120.489%
Cell Viability (Colon cancer organoid [3]; [6]): 73.3632%
Cell Viability (Colon cancer organoid [3]; [7]): 97.5472%

— ChEMBL document CHEMBL5674860, “Optimized Dual-Glo Assay to identify co-culture-induced drug vulnerabilities in 3D CRC models” (2024)
